Values after ≈ are worked out from the molar mass of the structure shown.
Tests used:
Trichosporon asahii [1] = assay: Antifungal activity against Trichosporon asahii 1188 after 24 hrs by broth microdilution method; assay type: functional; conditions: Trichosporon asahii, 1188, 24 h
Nakaseomyces glabratus [2] = assay: Antifungal activity against Candida glabrata 20/I after 48 hrs by broth microdilution method; assay type: functional
Pichia kudriavzevii [3] = assay: Antifungal activity against Candida krusei E28 after 24 hrs by broth microdilution method; assay type: functional; conditions: E28, 24 h
Nakaseomyces glabratus [4] = assay: Antifungal activity against Candida glabrata 20/I after 24 hrs by broth microdilution method; assay type: functional
Staphylococcus aureus [5] = assay: Antibacterial activity against methicillin-resistant Staphylococcus aureus H 5996/08 after 24 hrs by broth microdilution method; assay type: functional; conditions: H 5996/08, 24 h
Candida tropicalis [6] = assay: Antifungal activity against Candida tropicalis 156 after 48 hrs by broth microdilution method; assay type: functional; conditions: Candida tropicalis, 156, 48 h
Mycobacterium kansasii [7] = assay: Antimycobacterial activity against Mycobacterium kansasii 6509/96 after 21 days by micromethod; assay type: functional; conditions: 6509/96, 504 h
Mycobacterium kansasii [8] = assay: Antimycobacterial activity against Mycobacterium kansasii CNCTC My 235/80 after 14 days by micromethod; assay type: functional; conditions: CNCTC My 235/80, 336 h
Lichtheimia corymbifera [9] = assay: Antifungal activity against Absidia corymbifera 272 after 48 hrs by broth microdilution method; assay type: functional, organism-based; conditions: Lichtheimia corymbifera, 272, 48 h
HeLa = assay: Cytotoxicity against human HeLa cells assessed as reduction in cell viability after 48 hrs by MTT assay; assay type: cell-based
[10] = tested on: Staphylococcus epidermidis; assay: Antibacterial activity against Staphylococcus epidermidis H 6966/08 after 24 hrs by broth microdilution method; assay type: functional; conditions: H 6966/08, 24 h
Klebsiella pneumoniae [11] = assay: Antibacterial activity against Klebsiella pneumoniae D 11750/08 after 48 hrs by broth microdilution method; assay type: functional; conditions: D 11750/08, 48 h
[12] = tested on: Mycobacterium tuberculosis; assay: Antimycobacterial activity against Mycobacterium tuberculosis CNCTC My 331/88 after 21 days by micromethod; assay type: functional; conditions: CNCTC My 331/88, 504 h
[13] = tested on: Trichophyton mentagrophytes; assay: Antifungal activity against Trichophyton mentagrophytes 445 after 120 hrs by broth microdilution method; assay type: functional, organism-based; conditions: Trichophyton mentagrophytes, 445, 120 h
Enterococcus faecalis [14] = assay: Antibacterial activity against Enterococcus faecalis J 14365/08 after 24 hrs by broth microdilution method; assay type: functional; conditions: J 14365/08, 24 h
[15] = tested on: Mycobacterium tuberculosis; assay: Antimycobacterial activity against Mycobacterium tuberculosis CNCTC My 331/88 after 14 days by micromethod; assay type: functional; conditions: CNCTC My 331/88, 336 h
Mycobacterium kansasii [16] = assay: Antimycobacterial activity against Mycobacterium kansasii CNCTC My 235/80 after 21 days by micromethod; assay type: functional; conditions: CNCTC My 235/80, 504 h
Mycobacterium kansasii [17] = assay: Antimycobacterial activity against Mycobacterium kansasii 6509/96 after 7 days by micromethod; assay type: functional; conditions: 6509/96, 168 h
Mycobacterium kansasii [18] = assay: Antimycobacterial activity against Mycobacterium kansasii CNCTC My 235/80 after 7 days by micromethod; assay type: functional; conditions: CNCTC My 235/80, 168 h
Pseudomonas aeruginosa [19] = assay: Antibacterial activity against Pseudomonas aeruginosa ATCC 9027 after 24 hrs by broth microdilution method; assay type: functional; conditions: ATCC 9027, 24 h
Trichosporon asahii [20] = assay: Antifungal activity against Trichosporon asahii 1188 after 48 hrs by broth microdilution method; assay type: functional; conditions: Trichosporon asahii, 1188, 48 h
[21] = Cytotoxicity against human HeLa cells assessed as cell viability at 30 uM after 48 hrs by MTT assay; assay type: cell-based; conditions: read-out: Activity
Staphylococcus aureus [22] = assay: Antibacterial activity against methicillin-resistant Staphylococcus aureus H 5996/08 after 48 hrs by broth microdilution method; assay type: functional; conditions: H 5996/08, 48 h
Pichia kudriavzevii [23] = assay: Antifungal activity against Candida krusei E28 after 48 hrs by broth microdilution method; assay type: functional; conditions: E28, 48 h
Lichtheimia corymbifera [24] = assay: Antifungal activity against Absidia corymbifera 272 after 24 hrs by broth microdilution method; assay type: functional, organism-based; conditions: Lichtheimia corymbifera, 272, 24 h
[25] = tested on: Staphylococcus epidermidis; assay: Antibacterial activity against Staphylococcus epidermidis H 6966/08 after 48 hrs by broth microdilution method; assay type: functional; conditions: H 6966/08, 48 h
Mycobacterium avium [26] = assay: Antimycobacterial activity against Mycobacterium avium CNCTC My 330/88 after 21 days by micromethod; assay type: functional; conditions: CNCTC My 330/88, 504 h
[27] = Cytotoxicity against human HepG2 cells assessed as cell viability at 30 uM after 48 hrs by MTT assay; assay type: cell-based; conditions: read-out: Activity
Klebsiella pneumoniae [28] = assay: Antibacterial activity against extended spectrum beta-lactamase producing Klebsiella pneumoniae J 14368/08 after 24 hrs by broth microdilution method; assay type: functional; conditions: J 14368/08, 24 h
Escherichia coli [29] = assay: Antibacterial activity against Escherichia coli ATCC 8739 after 24 hrs by broth microdilution method; assay type: functional; conditions: ATCC 8739, ATCC 8739, 24 h
[30] = Cytotoxicity against human HuH7 cells assessed as cell viability at 30 uM after 48 hrs by MTT assay; assay type: cell-based, Huh-7; conditions: read-out: Activity
Escherichia coli [31] = assay: Antibacterial activity against Escherichia coli ATCC 8739 after 48 hrs by broth microdilution method; assay type: functional; conditions: ATCC 8739, ATCC 8739, 48 h
Aspergillus fumigatus [32] = assay: Antifungal activity against Aspergillus fumigatus 231 after 48 hrs by broth microdilution method; assay type: functional, organism-based; conditions: Aspergillus fumigatus, 231, 48 h
[33] = Cytotoxicity against MDCK2 cells assessed as reduction in cell viability after 48 hrs by MTT assay; assay type: cell-based; conditions: Canis lupus familiaris, MDCK-II
Enterococcus faecalis [34] = assay: Antibacterial activity against Enterococcus faecalis J 14365/08 after 48 hrs by broth microdilution method; assay type: functional; conditions: J 14365/08, 48 h
Pseudomonas aeruginosa [35] = assay: Antibacterial activity against Pseudomonas aeruginosa ATCC 9027 after 48 hrs by broth microdilution method; assay type: functional; conditions: ATCC 9027, 48 h
Staphylococcus aureus [36] = assay: Antibacterial activity against Staphylococcus aureus ATCC 6538 after 24 hrs by broth microdilution method; assay type: functional; conditions: ATCC 6538, 24 h
Aspergillus fumigatus [37] = assay: Antifungal activity against Aspergillus fumigatus 231 after 24 hrs by broth microdilution method; assay type: functional, organism-based; conditions: Aspergillus fumigatus, 231, 24 h
Candida albicans [38] = assay: Antifungal activity against Candida albicans ATCC 44859 after 24 hrs by broth microdilution method; assay type: functional; conditions: ATCC 44859, 24 h
Staphylococcus aureus [39] = assay: Antibacterial activity against Staphylococcus aureus ATCC 6538 after 48 hrs by broth microdilution method; assay type: functional; conditions: ATCC 6538, 48 h
Klebsiella pneumoniae [40] = assay: Antibacterial activity against extended spectrum beta-lactamase producing Klebsiella pneumoniae J 14368/08 after 48 hrs by broth microdilution method; assay type: functional; conditions: J 14368/08, 48 h
Mycobacterium avium [41] = assay: Antimycobacterial activity against Mycobacterium avium CNCTC My 330/88 after 14 days by micromethod; assay type: functional; conditions: CNCTC My 330/88, 336 h
HepG2 = assay: Cytotoxicity against human HepG2 cells assessed as reduction in cell viability after 48 hrs by MTT assay; assay type: cell-based; conditions: HepG2, 48 h
Candida tropicalis [42] = assay: Antifungal activity against Candida tropicalis 156 after 24 hrs by broth microdilution method; assay type: functional; conditions: Candida tropicalis, 156, 24 h
Klebsiella pneumoniae [43] = assay: Antibacterial activity against Klebsiella pneumoniae D 11750/08 after 24 hrs by broth microdilution method; assay type: functional; conditions: D 11750/08, 24 h
Candida albicans [44] = assay: Antifungal activity against Candida albicans ATCC 44859 after 48 hrs by broth microdilution method; assay type: functional; conditions: ATCC 44859, 48 h
[45] = tested on: Trichophyton mentagrophytes; assay: Antifungal activity against Trichophyton mentagrophytes 445 after 72 hrs by broth microdilution method; assay type: functional, organism-based; conditions: Trichophyton mentagrophytes, 445, 72 h
[46] = Cytotoxicity against MDCK2 cells assessed as cell viability at 30 uM after 48 hrs by MTT assay; assay type: cell-based, Canis lupus familiaris, MDCK-II; conditions: dog, read-out: Activity
[47] = Cytotoxicity against human HuH7 cells assessed as reduction in cell viability after 48 hrs by MTT assay; assay type: cell-based; conditions: Huh-7, 48 h
Mycobacterium kansasii [48] = assay: Antimycobacterial activity against Mycobacterium kansasii 6509/96 after 14 days by micromethod; assay type: functional; conditions: 6509/96, 336 h

Compound `O=[N+]([O-])c1ccc(C[Se]c2nnnn2C2CCCCC2)c([N+](=O)[O-])c1` has an IC80 (Trichosporon asahii [1]) of 62.5 µM, an IC80 (Nakaseomyces glabratus [2]) of 62.5 µM and an IC80 (Pichia kudriavzevii [3]) of over 500 µM. The IC80 (Nakaseomyces glabratus [4]) was 62.5 µM, the IC95 (Staphylococcus aureus [5]) was 31.2 µM and the IC80 (Candida tropicalis [6]) was over 500 µM. It also gave an MIC (Mycobacterium kansasii [7]) of 62 µM (≈ 25.5 µg/mL), an MIC (Mycobacterium kansasii [8]) of 16 µM (≈ 6.58 µg/mL) and an IC50 (Lichtheimia corymbifera [9]) of over 500 µM. For the same compound, the IC50 (HeLa) was 29 µM, the IC95 [10] was 15.6 µM and the IC95 (Klebsiella pneumoniae [11]) was over 500 µM. For the same compound, the MIC [12] was 8 µM (≈ 3.29 µg/mL), the IC50 [13] was 31.2 µM and the IC95 (Enterococcus faecalis [14]) was 15.6 µM. The MIC [15] was 4 µM (≈ 1.65 µg/mL), the MIC (Mycobacterium kansasii [16]) was 16 µM (≈ 6.58 µg/mL) and the MIC (Mycobacterium kansasii [17]) was 16 µM (≈ 6.58 µg/mL). For the same compound, the MIC (Mycobacterium kansasii [18]) was 4 µM (≈ 1.65 µg/mL), the IC95 (Pseudomonas aeruginosa [19]) was over 500 µM and the IC80 (Trichosporon asahii [20]) was 250 µM. The viability at 48 h, 30 µM [21] was 32%, the IC95 (Staphylococcus aureus [22]) was 31.2 µM and the IC80 (Pichia kudriavzevii [23]) was over 500 µM. It also gave an IC50 (Lichtheimia corymbifera [24]) of 500 µM, an IC95 [25] of 15.6 µM and an MIC (Mycobacterium avium [26]) of 32 µM (≈ 13.2 µg/mL). It also gave a viability at 48 h, 30 µM [27] of 4%, an IC95 (Klebsiella pneumoniae [28]) of over 500 µM and an IC95 (Escherichia coli [29]) of over 500 µM. For the same compound, the viability at 48 h, 30 µM [30] was 49%, the IC95 (Escherichia coli [31]) was over 500 µM and the IC50 (Aspergillus fumigatus [32]) was over 500 µM. It also gave an IC50 [33] of under 7.5 µM, an IC95 (Enterococcus faecalis [34]) of 15.6 µM and an IC95 (Pseudomonas aeruginosa [35]) of over 500 µM. It also gave an IC95 (Staphylococcus aureus [36]) of 31.2 µM, an IC50 (Aspergillus fumigatus [37]) of over 500 µM and an IC80 (Candida albicans [38]) of 15.6 µM. For the same compound, the IC95 (Staphylococcus aureus [39]) was 31.2 µM, the IC95 (Klebsiella pneumoniae [40]) was over 500 µM and the MIC (Mycobacterium avium [41]) was 32 µM (≈ 13.2 µg/mL). The IC50 (HepG2) was 11 µM, the IC80 (Candida tropicalis [42]) was over 500 µM and the IC95 (Klebsiella pneumoniae [43]) was over 500 µM. For the same compound, the IC80 (Candida albicans [44]) was 15.6 µM, the IC50 [45] was 31.2 µM and the viability at 48 h, 30 µM [46] was 11%. The IC50 [47] was over 30 µM and the MIC (Mycobacterium kansasii [48]) was 62 µM (≈ 25.5 µg/mL).
